From article PMC9000588 (Molecules, 2022)
Numbered stars: 1 amine (or outer) side, 2 acyl side, 3 side chain; on linkers, the order of the positions; unused ones are H or OH. Bridge positions count the residues as written; N and C are the ends. Ends that are not written are not given here. Peptide text beside a SMILES is read from it. Suc = O=C(CCC(=O)[*:2])[*:1]

Biological target: SARS-CoV-2 spike protein RBD (Severe acute respiratory syndrome coronavirus 2, UniProt P0DTC2)
Test: biochemical
Type: binding
Conditions: for kon: read-out: Ka; for Binding (Yes/No): pH 7.4

Compound | kon | other results
CSCC[C@@H]1NC(=O)[C@H](CC(C)C)NC(=O)[C@H](CCCCN)NC(=O)[C@H](CCC(=O)O)NC(=O)[C@H](Cc2ccccc2)NC(=O)[C@H](CC(C)C)NC(=O)[C@H](CC(=O)O)NC(=O)[C@H](CCC(=O)O)NC(=O)[C@H](C)NC(=O)[C@H](CCC(=O)O)NC(=O)[C@H](Cc2c[nH]cn2)NC(=O)[C@H](CC(N)=O)NC(=O)[C@H](Cc2ccccc2)NC(=O)[C@H](CCCCN)NC1=O [Peptide 3] (cyclo(AEDLFEKLMKFNHE)) | 15.1 ± 3.8 M⁻¹ s⁻¹ | 
CSCC[C@H](NC(=O)[C@H](CC(C)C)NC(=O)[C@H](CCCCN)NC(=O)[C@H](CCC(=O)O)NC(=O)[C@H](Cc1ccccc1)NC(=O)[C@H](CC(C)C)NC(=O)[C@H](CC(=O)O)NC(=O)[C@H](CCC(=O)O)NC(=O)[C@H](C)NC(=O)[C@H](CCC(=O)O)NC(=O)[C@H](Cc1c[nH]cn1)NC(=O)[C@H](CC(N)=O)NC(=O)[C@H](Cc1ccccc1)NC(=O)[C@H](CCCCN)NC(=O)CCC(=O)O)C(N)=O [Peptide 4] (Suc-KFNHEAEDLFEKLM-NH2) | 13.9 ± 3.6 M⁻¹ s⁻¹ | 
CSCC[C@@H]1NC(=O)[C@H](CC(C)C)NC(=O)[C@H](CCCCN)NC(=O)[C@H](CCC(=O)O)NC(=O)[C@H](Cc2ccccc2)NC(=O)[C@H](CC(C)C)NC(=O)[C@H](CC(=O)O)NC(=O)[C@H](CCC(=O)O)NC(=O)[C@H](C)NC(=O)[C@H](CCC(=O)O)NC(=O)[C@H](Cc2c[nH]cn2)NC(=O)[C@H](CC(N)=O)NC(=O)[C@H](Cc2ccccc2)NC(=O)[C@H](CCCCN)NC(=O)[C@@H](N)CSSC[C@@H](C(N)=O)NC1=O [Peptide 6] (H-CKFNHEAEDLFEKLMC-NH2; disulfide 1-16) | 6.84 ± 2.46 M⁻¹ s⁻¹ | 
CSCC[C@H](NC(=O)[C@H](CC(=O)O)NC(=O)[C@H](CCC(=O)O)NC(=O)[C@H](Cc1ccccc1)NC(=O)[C@H](CC(C)C)NC(=O)[C@H](CCC(=O)O)NC(=O)[C@H](CCC(=O)O)NC(=O)[C@H](Cc1ccccc1)NC(=O)[C@H](CC(C)C)NC(=O)[C@H](CCCCN)NC(=O)[C@H](CCC(=O)O)NC(=O)[C@H](Cc1ccccc1)NC(=O)[C@H](CC(C)C)NC(=O)[C@H](CC(=O)O)NC(=O)[C@H](CCC(=O)O)NC(=O)[C@H](C)NC(=O)[C@H](CCC(=O)O)NC(=O)[C@H](Cc1c[nH]cn1)NC(=O)[C@H](CC(N)=O)NC(=O)[C@H](Cc1ccccc1)NC(=O)[C@H](CCCCN)NC(=O)CCC(=O)O)C(N)=O [Peptide 7] (Suc-KFNHEAEDLFEKLFEELFEDM-NH2) | 4.29 ± 0.52 M⁻¹ s⁻¹ | Kd: (2.09 ± 0.39) × 10^−2 M^−1; Binding (Yes/No): Yes
CC(C)C[C@H](NC(=O)CCC(=O)O)C(=O)N[C@@H](CC(C)C)C(=O)N[C@@H](CCC(=O)O)C(=O)N[C@@H](CCCCN)C(=O)N[C@@H](CC(C)C)C(=O)N[C@@H](CC(C)C)C(=O)N[C@@H](CCC(=O)O)C(=O)N[C@@H](Cc1c[nH]c2ccccc12)C(=O)N[C@@H](CC(C)C)C(=O)N[C@@H](CCC(=O)O)C(N)=O [Peptide 9] (Suc-LLEKLLEWLE-NH2) | 5.83 ± 2.92 M⁻¹ s⁻¹ | Kd: (1.39 ± 0.16) × 10^−2 M^−1; Binding (Yes/No): Yes
Ac-KFNHEAEDLFEKLM [Peptide 5] | 0.64 ± 0.09 M⁻¹ s⁻¹ | 
GLFKEALEELWEA-NH2 [Peptide 8] | 5.39 ± 1.31 M⁻¹ s⁻¹ | 
KFNDEAEDLFKLFEELFEDM-NH2 [Peptide 10] | 6.81 ± 2.41 M⁻¹ s⁻¹ | 
KFNHEAEDLFEKLM [Peptide 1] | 4.62 ± 0.45 M⁻¹ s⁻¹ | 
KFNHEAEDLFEKLM-NH2 [Peptide 2] | 1.15 ± 0.08 M⁻¹ s⁻¹ | 
MIEEQAKFLDKFNHEAEDLFK-NH2 [Peptide 11] |  | binding to the spike protein RBD at higher concentrations: bound
